# Test results reported in patent US20250296955A1, “PIN1 TARGETING COMPOUNDS AND DEGRADERS AND METHODS THEREOF” (The Regents of the University of California, priority 2024, published 2025).
# Where two headings read alike, the source gives them in different places. Where a SMILES comes first, the peptide text is derived from it. [ ]: non-standard residue; d: D form. The star is where a group is joined. Tyr(3-NO2) = N[C@@H](Cc1ccc(O)c([N+](=O)[O-])c1)C(=O)O; pY = N[C@@H](Cc1ccc(OP(=O)(O)O)cc1)C(=O)O; Phe(4-CN) = N#Cc1ccc(C[C@H](N)C(=O)O)cc1; Phe(4-Cl) = N[C@@H](Cc1ccc(Cl)cc1)C(=O)O; Pip = O=C(O)[C@@H]1CCCCN1; ClAc = O=C(CCl)*
# Assays:
# [1] = molecular target: T1, Pin1 (Homo sapiens, UniProt Q13526); assay: DELFIA displacement assay (displacement of biotinylated D-peptide from 6His-Pin1); type: binding; set-up: human Pin1 (residues 1-163); made in house; host or cells: E. coli BL21 (DE3) gold pLysS
# Description: (§1) Important to the success of structure activity relations studies, robust biochemical, biophysical, and cell-based assays were implemented that enabled rapid and iterative evaluations of test Pin1 targeting agents. First, the DELFIA (Dissociation-enhanced lanthanide fluorescent immunoassay) assay platform was used to derive a robust heterogeneous assay to monitor the ability of test agents to displace the binding between Pin1 and the D-Peptide (Table 1), which was obtained in a biotinylated form (FIG. 10). […] Second, for an orthogonal biophysical assay denaturation thermal shift measurements were used. Pin1 was incubated with vehicle control (buffer with 1% DMSO), or test agents at protein: ligand ratio of 1:2 (20 μM protein-40 μM compound) for 10 min at 10° C. in the presence of the fluorescent dye SYPRO Orange. The samples were gradually exposed to increasing temperature (linear gradient from 10° C. to 95° C.), causing the protein to unfold. This unfolding allowed the fluorescent dye to bind to the protein's exposed hydrophobic residues, resulting in an increase in fluorescence. The thermal shift assay measures the protein's melting temperature (Tm), which is the temperature at which the protein denatures by 50%. Ligands can affect a protein target to thermal denaturation, which could manifest in a positive or negative shift in the protein denaturation temperature (ΔTm) (Bai N, Roder H, Dickson A, & Karanicolas J (2019) Scientific Reports 9; and Kranz J K & Schalk-Hihi C (2011) Fragment-Based Drug Design: Tools, Practical Approaches, and Examples 493:277-298). Using these two assays, a series of commercially available Pin1 inhibitors were profiled (Table 1). The non-covalent agent D-peptide resulted only moderately active, with an IC50 value of ˜3 μM that closely resembled the dissociation constant for this agent determined via isothermal titration calorimetry, and the ˜ 3 μM IC50 value as reported by a fluorescence polarization assay (Pinch B J, et al. (2020) Nat Chem Biol 16(9):979-987). […] (Table 1) was observed.
# For the reported covalent agents such as sulfopin (Dubiella C, et al. (2021) Nat Chem Biol 17(9):954-963), BJP-07-017-3 (Pinch B J, et al. (2020) Nat Chem Biol 16(9):979-987), or KPT-6566 (Campaner E, et al. (2017) Nat Commun 8:15772), a 6-h pre-incubation period was included in the DELFIA assay to allow the covalent reaction to take place. For those agents, IC50 values that fell in the low nanomolar range were observed, consistent with what was reported previously for those compounds. […] To make those determinations in a broader panel of cancer cell lines three pancreatic cancer cell lines, BxPC3, MIA-PaCa-2, and PANC-1, the breast cancer cell line MDA-MB-231, the prostate cancer cell line PC3, and the non-small cell lung cancer cell line A549 were chosen. Each cell line represents various states of KRAS activating mutations (for example BxPC3 is wt-KRAS, while MIAPaCa2 carries the KRAS(G12C) mutation, and the PANC-1 the KRAS(G12D) (Miquel M, Zhang S, & Pilarsky C (2021) Front Cell Dev Biol 9:748631), A549 is KRAS(G12S) (Wang H, et al. (2019) EBioMedicine 49:106-117), MDA-MB-231 is KRAS(G13D) (Kim R K, et al. (2015) Exp Mol Med 47(1):e137), PC3 is wt-KRAS (Bouali S, et al. (2009) Oncol Rep 21(3):731-735). Pin1 protein levels in these cell lines were established using a specific Pin1 antibody in western blot analyses (FIG. 1A). The data confirmed that all these selected human cancer cell lines expressed a significant level of Pin1 (FIG. 1A).
# Each well of 96-well streptavidin-coated plates (PerkinElmer) was incubated with 100 μL of 200 nM biotinylated D-peptide for 2 h and washed 3 times with a wash solution (PerkinElmer). Subsequently, a mixture containing Pin1, and a serial dilution of the test compounds were pre-incubated for 6 h. Eu-N1-labeled anti-6x-His antibody (PerkinElmer, 1:2000) was then added to this mixture and further incubated in the biotinylated D-peptide-bound plates for another 2 h. […]
# [2] = molecular target: T1, Pin1; assay: Denaturation thermal shift assay (SYPRO Orange); type: binding; set-up: human Pin1 (residues 1-163); made in house; host or cells: E. coli BL21 (DE3) gold pLysS
# Description: as §1
# Thermal shift assays for Pin1 alone and in the presence of the inhibitors were obtained with a BioRad CFX Connect Real-Time PCR Detection System. Each data point was collected in quadruplicate. Each sample was prepared using buffer 50 mM Phosphate pH 7.5, 150 mM NaCl, 1% DMSO. Protein: ligand ratio used was 1:2 (20 μM protein-40 μM compound), and SYPRO Orange was used. Incubation of the Pin1 protein with the compounds was performed at 10° C. for 10 min. Samples were then heated from 10 to 95° C. with heating increments of 0.05° C., over 30 min. Fluorescence intensity was measured within the excitation/emission ranges 470-505/540-700 nm.
# [3] = Table 3, single transition, ± SE of four replicates
# [4] = running text and figure legends
# [5] = Table 4, two transitions observed, likely incomplete complex formation
# T1 sequence (Q13526 whole entry, the tested form may be a part): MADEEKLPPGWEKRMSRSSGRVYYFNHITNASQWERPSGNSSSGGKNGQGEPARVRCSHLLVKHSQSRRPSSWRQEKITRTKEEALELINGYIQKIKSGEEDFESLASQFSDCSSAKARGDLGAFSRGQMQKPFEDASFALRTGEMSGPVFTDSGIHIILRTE
structure (smiles),measurement,setting,value
NC(=O)[C@H](Cc1c[nH]c2ccccc12)NC(=O)[C@@H]1CCCCN1C(=O)[C@H](Cc1ccc(OP(=O)(O)O)cc1)NC(=O)CCl [158E7] (ClAc-[pY]-[Pip]-Trp-NH2),IC50,"[1]; Table 3, ± SD from duplicates",0.327 ± 0.025 µM
same,ΔTm (° C.),[2]; [3],−7.08 ± 0.22 °C
N#Cc1ccc(C[C@H](NC(=O)CCl)C(=O)N2CCCC[C@H]2C(=O)N[C@@H](Cc2c[nH]c3ccccc23)C(N)=O)cc1 [158G4] (ClAc-[Phe(4-CN)]-[Pip]-Trp-NH2),IC50,"[1]; Table 3, ± SD from duplicates",0.118 ± 0.021 µM
same,ΔTm (° C.),[2]; [3],−9.71 ± 0.07 °C
NC(=O)[C@H](Cc1c[nH]c2ccccc12)NC(=O)[C@@H]1C[C@H]2CCCC[C@@H]2N1C(=O)[C@@H]1Cc2c([nH]c3ccccc23)CN1C(=O)CCl [164A4],IC50,"[1]; Table 4, ± SD from duplicates",0.035 ± 0.005 µM
same,ΔTm (° C.),"[2]; Table 4, single transition, ± SE of four replicates",−20.46 ± 0.04 °C
O=C(CCl)N[C@@H](Cc1cccc(O)c1)C(=O)N1CCCC[C@H]1C(=O)NCCc1c[nH]c2cc(Cl)cc(Cl)c12 [164A2],IC50,"[1]; Table 3, ± SD from duplicates",0.289 ± 0.023 µM
same,share of first thermal shift peak,"[2]; Table 3, percentage in brackets after first ΔTm",10%
same,share of second thermal shift peak,"[2]; Table 3, percentage in brackets after second ΔTm",90%
same,"ΔTm (° C.), first of two peaks","[2]; Table 3, two peaks observed, likely incomplete complex formation",−0.25 ± 0.31 °C
CN[C@@H](Cc1ccccc1)C(=O)N1CCCC[C@H]1C(=O)N[C@@H](Cc1c[nH]c2ccccc12)C(=O)N[C@@H](CCCNC(N)=O)C(N)=O [158B3] (HELM PEPTIDE1{[meF].[O=C([C@@H]1CCCCN1[*:1])[*:2]].W.[Cit].[am]}$$$$V2.0),IC50,[1],> 10 µM
same,IC50,"[1]; Table 2, in μM",> 10 µM
same,ΔTm (° C.),"[2]; Table 2, ± SE of four replicates",0.62 ± 0.04 °C
same,ΔTm,[2]; [4],+0.62 °C
COc1ccc(C[C@H](NC(=O)CCl)C(=O)N2CCCC[C@H]2C(=O)N[C@@H](Cc2c[nH]c3ccccc23)C(N)=O)cc1 [158H5] (ClAc-Tyr(Me)-[Pip]-Trp-NH2),IC50,"[1]; Table 3, ± SD from duplicates",0.0824 ± 0.0004 µM
same,ΔTm (° C.),[2]; [3],−9.82 ± 0.08 °C
NC(=O)[C@H](Cc1c[nH]c2ccccc12)NC(=O)[C@@H]1CCCCN1C(=O)[C@H](Cc1c[nH]c2ccccc12)NC(=O)CCl [158G9] (HELM PEPTIDE1{[O=C(CCl)[*:2]].W.[O=C([C@@H]1CCCCN1[*:1])[*:2]].W.[am]}$$$$V2.0),IC50,"[1]; Table 3, ± SD from duplicates",0.044 ± 0.008 µM
same,IC50,[1]; [4],0.043 µM
same,ΔTm (° C.),[2]; [3],−9.42 ± 0.18 °C
CC1(C)[C@H]2C[C@@H](C(=O)N[C@@H](Cc3c[nH]c4ccccc34)C(N)=O)N(C(=O)[C@@H]3Cc4c([nH]c5ccccc45)CN3C(=O)CCl)[C@H]21 [164A12],IC50,"[1]; Table 4, ± SD from duplicates",0.044 ± 0.001 µM
same,share of first denaturation transition,"[2]; Table 4, percentage in brackets after first ΔTm",30%
same,share of second denaturation transition,"[2]; Table 4, percentage in brackets after second ΔTm",70%
same,"ΔTm (° C.), first of two denaturation transitions",[2]; [5],+1.03 ± 0.13 °C
same,"ΔTm (° C.), second printed of two denaturation transitions",[2]; [5],−19.18 ± 0.07 °C
NC(=O)[C@H](Cc1c[nH]c2ccccc12)NC(=O)[C@@H]1CCCCN1C(=O)[C@H](Cc1ccc(O)c([N+](=O)[O-])c1)NC(=O)CCl [158G10] (ClAc-[Tyr(3-NO2)]-[Pip]-Trp-NH2),IC50,"[1]; Table 3, ± SD from duplicates",0.183 ± 0.012 µM
same,ΔTm (° C.),[2]; [3],−10.44 ± 0.17 °C
NC(=O)[C@H](Cc1c[nH]c2ccccc12)NC(=O)[C@@H]1CCCCN1C(=O)[C@H](Cc1ccc(Cl)cc1)NC(=O)CCl [158G12] (ClAc-[Phe(4-Cl)]-[Pip]-Trp-NH2),IC50,"[1]; Table 3, ± SD from duplicates",0.527 ± 0.038 µM
same,ΔTm (° C.),"[2]; Table 5, only one transition given",−12.19 ± 0.07 °C
